Broadly, the IC50 is the midpoint of a concentration-inhibition curve. A higher IC50 goes with weaker potency in that assay.

The target of this assay is T1, human TRH-DE (Homo sapiens, UniProt Q9UKU6).
T1 construct: expressed in transfected cells; host or cells: Expi 293 cells (transient expression), membrane fraction
T1 sequence (Q9UKU6 1-1069): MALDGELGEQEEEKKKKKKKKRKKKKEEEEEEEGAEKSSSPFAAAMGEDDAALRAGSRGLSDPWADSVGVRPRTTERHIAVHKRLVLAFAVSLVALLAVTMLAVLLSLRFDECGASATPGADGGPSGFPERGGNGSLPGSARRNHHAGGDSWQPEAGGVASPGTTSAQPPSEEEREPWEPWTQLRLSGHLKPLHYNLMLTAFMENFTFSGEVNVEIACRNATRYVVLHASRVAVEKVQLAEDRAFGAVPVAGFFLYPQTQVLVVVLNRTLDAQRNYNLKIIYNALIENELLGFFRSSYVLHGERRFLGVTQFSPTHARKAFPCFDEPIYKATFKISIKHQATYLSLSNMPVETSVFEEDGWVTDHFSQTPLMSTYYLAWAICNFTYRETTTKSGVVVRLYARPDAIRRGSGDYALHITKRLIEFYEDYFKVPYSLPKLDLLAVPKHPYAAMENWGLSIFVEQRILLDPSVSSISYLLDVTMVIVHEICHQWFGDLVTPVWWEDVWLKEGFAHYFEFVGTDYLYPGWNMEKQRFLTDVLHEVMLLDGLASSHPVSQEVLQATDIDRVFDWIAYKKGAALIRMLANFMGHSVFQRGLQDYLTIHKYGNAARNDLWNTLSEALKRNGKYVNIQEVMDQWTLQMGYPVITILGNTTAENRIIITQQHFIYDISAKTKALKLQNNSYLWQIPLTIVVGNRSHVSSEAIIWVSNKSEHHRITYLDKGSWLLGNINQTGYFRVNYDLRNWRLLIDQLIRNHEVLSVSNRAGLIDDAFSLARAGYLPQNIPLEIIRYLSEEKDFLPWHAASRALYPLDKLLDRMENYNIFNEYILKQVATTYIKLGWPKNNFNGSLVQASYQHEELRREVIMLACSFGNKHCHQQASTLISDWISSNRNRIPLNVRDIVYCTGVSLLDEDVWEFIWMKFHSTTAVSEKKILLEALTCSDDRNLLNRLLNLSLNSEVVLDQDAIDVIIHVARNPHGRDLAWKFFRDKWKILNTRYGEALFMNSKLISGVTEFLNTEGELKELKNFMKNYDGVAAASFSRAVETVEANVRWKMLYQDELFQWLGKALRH
The assay is described as follows: TRH-DE inhibition test (RapidFire MS measurement of product Cyclo (His-Pro)). The class given is biochemical. The conditions noted are these: membrane fraction of Expi 293 cells expressing human TRH-DE; 10 μM TRH substrate; room temperature, 2 hours; 16-point concentration test. The procedure, abridged:
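Inhibition derived from product/internal-standard ratios of Cyclo(His-Pro), quantified by RapidFire triple-quadrupole MS after acetonitrile:methanol quench, with IC50 fitted over 16 concentrations. Enzyme source: membranes of Expi 293 cells transiently expressing human TRH-DE, 4 μg/ml, pH 7.4 phosphate buffer. Incubation with 10 μM substrate ran 2 h at room temperature.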
`C[C@@H]1CCc2nc(C(C)(F)F)sc2C(=O)N1C1CC2(C1)CN(S(=O)(=O)c1ccccc1F)C2` [Example 91]: the IC50 came to 8 nM. To `C[C@@H]1CCc2nc([C@H]3C[C@H]3F)sc2C(=O)N1C1CC2(C1)CN(S(=O)(=O)c1ccccc1F)C2` [Example 95] belongs 4 nM; to `C[C@@H]1CCc2nc([C@@H]3C[C@@H]3F)sc2C(=O)N1C1CC2(C1)CN(S(=O)(=O)c1ccccc1F)C2` [Example 96], 2 nM; to `C[C@@H]1CCc2nc(C3(C(F)(F)F)CC3)sc2C(=O)N1C1CC2(C1)CN(S(=O)(=O)c1ccccc1F)C2` [Example 97], 3 nM. In the case of `Cc1snc2c1CC[C@@H](C)N(C1CC3(C1)CN(S(=O)(=O)c1ccccc1F)C3)C2=O` [Example 99] it was 16 nM; in that of `Cc1nsc2c1C(=O)N(C1CC3(C1)CN(S(=O)(=O)c1ccccc1F)C3)[C@H](C)CC2` [Example 100], 16 nM; in that of `C[C@@H]1CCc2oc(C3CC3)nc2C(=O)N1C1CC2(C1)CN(S(=O)(=O)c1ccccc1F)C2` [Example 101], 14 nM. To `Cc1onc2c1CC[C@@H](C)N(C1CC3(C1)CN(S(=O)(=O)c1ccccc1F)C3)C2=O` [Example 103] belongs 10 nM; to `CC1CCc2c(noc2C2CC2)C(=O)N1C1CC2(C1)CN(S(=O)(=O)c1ccccc1F)C2` (centres unmarked) [Example 104], 14 nM.

Turning to `Cc1noc2c1C(=O)N(C1CC3(C1)CN(S(=O)(=O)c1ccccc1F)C3)[C@H](C)CC2` [Example 105], the midpoint of inhibition, the IC50, lay at 14 nM. `C[C@@H]1CCc2nc(C3(F)CC3)sc2C(=O)N1C1CC2(C1)CN(S(=O)(=O)c1ccccc1F)C2` [Example 109, (6R)-2-(1-fluorocyclopropyl)-5-[2-(2-fluorophenyl)sulfonyl-2-azaspiro[3.3]heptan-6-yl]-6-methyl-7,8-dihydro-6H-thiazolo[5,4-c]azepin-4-one] came in with an IC50 of 3 nM. To `CC(C)c1nc2c(s1)C(=O)N(C1CC3(C1)CN(S(=O)(=O)c1ccccc1F)C3)[C@H](C)CC2` [Example 110, (6R)-5-[2-(2-fluorophenyl)sulfonyl-2-azaspiro[3.3]heptan-6-yl]-2-isopropyl-6-methyl-7,8-dihydro-6H-thiazolo[5,4-c]azepin-4-one] belongs 4 nM; to `CC1C=Cc2nc(C(F)(F)F)ccc2C(=O)N1C1CC2(C1)CN(S(=O)(=O)c1ccccc1F)C2` (centres unmarked) [Example 111, 6-[2-(2-fluorophenyl)sulfonyl-2-azaspiro[3.3]heptan-6-yl]-7-methyl-2-(trifluoromethyl)-7H-pyrido[3,2-c]azepin-5-one], 60 nM; to `Cc1nc2c(s1)C(=O)N(C1CC3(C1)CN(S(=O)(=O)c1ccccc1F)C3)[C@H](C)C=C2` [Example 116], 116 nM. In the case of `C[C@@H]1C=Cc2nc(C(C)(F)F)sc2C(=O)N1C1CC2(C1)CN(S(=O)(=O)c1ccccc1F)C2` [Example 117] it was 46 nM. To `C[C@@H]1C=Cc2nc(C3(F)CC3)sc2C(=O)N1C1CC2(C1)CN(S(=O)(=O)c1ccccc1F)C2` [Example 121] belongs 21 nM; to `C[C@@H]1C=Cc2nc([C@@H]3C[C@@H]3F)sc2C(=O)N1C1CC2(C1)CN(S(=O)(=O)c1ccccc1F)C2` [Example 122], 15 nM.

For the compound `C[C@@H]1C=Cc2nc([C@H]3C[C@H]3F)sc2C(=O)N1C1CC2(C1)CN(S(=O)(=O)c1ccccc1F)C2` [Example 123], the IC50 is 15 nM. To `C[C@@H]1C=Cc2nc(C3(C(F)(F)F)CC3)sc2C(=O)N1C1CC2(C1)CN(S(=O)(=O)c1ccccc1F)C2` [Example 124] belongs 17 nM; to `Cc1snc2c1C=C[C@@H](C)N(C1CC3(C1)CN(S(=O)(=O)c1ccccc1F)C3)C2=O` [Example 126], 24 nM. To `Cc1nsc2c1C(=O)N(C1CC3(C1)CN(S(=O)(=O)c1ccccc1F)C3)[C@H](C)C=C2` [Example 127] belongs 21 nM; to `C[C@@H]1C=Cc2oc(C3CC3)nc2C(=O)N1C1CC2(C1)CN(S(=O)(=O)c1ccccc1F)C2` [Example 128], 224 nM; to `Cc1onc2c1C=C[C@@H](C)N(C1CC3(C1)CN(S(=O)(=O)c1ccccc1F)C3)C2=O` [Example 130], 136 nM.

`Cc1noc2c1C(=O)N(C1CC3(C1)CN(S(=O)(=O)c1ccccc1F)C3)[C@H](C)C=C2` [Example 132] gave an IC50 of 131 nM. `CC1C2C(c3nc(C4CC4)sc3C(=O)N1C1CC3(C1)CN(S(=O)(=O)c1ccccc1F)C3)C2(F)F` (stereo not drawn) [Example 133, (2R*,4S*,5R*)-10-cyclopropyl-3,3-difluoro-6-[2-(2-fluorophenyl)sulfonyl-2-azaspiro[3.3]heptan-6-yl]-5-methyl-9-thia-6,11-diazatricyclo[6.3.0.02.4]undec-1(8),10-dien-7-one]: half-maximal inhibition (IC50) was put at 4 nM. In turn, `C[C@@H]1COc2cc(N3CCOCC3)ncc2C(=O)N1C1CC2(C1)CN(S(=O)(=O)c1ccccc1F)C2` [Example 134, (3R)-4-[2-(2-fluorophenyl)sulfonyl-2-azaspiro[3.3]heptan-6-yl]-3-methyl-8-morpholino-2,3-dihydropyrido[3,4-f][1,4]oxazepin-5-one] displayed an IC50 of 2 nM.

Turning to `CCCCN(C)c1cc2c(cn1)C(=O)N(C1CC3(C1)CN(S(=O)(=O)c1ccccc1F)C3)[C@H](C)CO2` [Example 135], the IC50 was 1 nM. In the case of `C[C@@H]1COc2cc(NC3CCCC3)ncc2C(=O)N1C1CC2(C1)CN(S(=O)(=O)c1ccccc1F)C2` [Example 136] it was 1 nM; in that of `C[C@@H]1COc2cc(N(C)C3CCCC3)ncc2C(=O)N1C1CC2(C1)CN(S(=O)(=O)c1ccccc1F)C2` [Example 137], 1 nM.

Take `C[C@@H]1COc2cc(N(C)CC3CCCCC3)ncc2C(=O)N1C1CC2(C1)CN(S(=O)(=O)c1ccccc1F)C2` [Example 138]: the IC50 is 1 nM. In the case of `C[C@@H]1COc2cc(N(C)Cc3ccccc3)ncc2C(=O)N1C1CC2(C1)CN(S(=O)(=O)c1ccccc1F)C2` [Example 139], 2 nM corresponded to half-maximal inhibition (IC50). To `C[C@@H]1COc2cc(Nc3ccc(F)cc3)ncc2C(=O)N1C1CC2(C1)CN(S(=O)(=O)c1ccccc1F)C2` [Example 140] belongs 1 nM; to `C[C@@H]1COc2cc(N(C)c3ccc(F)cc3)ncc2C(=O)N1C1CC2(C1)CN(S(=O)(=O)c1ccccc1F)C2` [Example 141], 1 nM; to `C[C@@H]1COc2cc(N3CCCC3)ncc2C(=O)N1C1CC2(C1)CN(S(=O)(=O)c1ccccc1F)C2` [Example 142], 1 nM. In the case of `C[C@@H]1COc2cc(N3CC[C@H](F)C3)ncc2C(=O)N1C1CC2(C1)CN(S(=O)(=O)c1ccccc1F)C2` [Example 143] it was 1 nM; in that of `C[C@@H]1COc2cc(N3CC[C@@H](F)C3)ncc2C(=O)N1C1CC2(C1)CN(S(=O)(=O)c1ccccc1F)C2` [Example 144], 1 nM; in that of `C[C@@H]1COc2cc(N3CC(F)(F)C(F)(F)C3)ncc2C(=O)N1C1CC2(C1)CN(S(=O)(=O)c1ccccc1F)C2` [Example 147], 1 nM. To `C[C@@H]1COc2cc(N3C[C@H]4C[C@H]4C3)ncc2C(=O)N1C1CC2(C1)CN(S(=O)(=O)c1ccccc1F)C2` [Example 148] belongs under 1 nM; to `C[C@@H]1COc2cc(N3CCCCC3)ncc2C(=O)N1C1CC2(C1)CN(S(=O)(=O)c1ccccc1F)C2` [Example 149], 1 nM; to `C[C@@H]1COc2cc(N3CCCC[C@@H]3C)ncc2C(=O)N1C1CC2(C1)CN(S(=O)(=O)c1ccccc1F)C2` [Example 150], 1 nM. In the case of `C[C@@H]1CCCCN1c1cc2c(cn1)C(=O)N(C1CC3(C1)CN(S(=O)(=O)c1ccccc1F)C3)[C@H](C)CO2` [Example 151], the IC50 worked out at 1 nM.

The compound `CC1CCN(c2cc3c(cn2)C(=O)N(C2CC4(C2)CN(S(=O)(=O)c2ccccc2F)C4)[C@H](C)CO3)CC1` [Example 153] showed an IC50 of 1 nM. To `COC1CCN(c2cc3c(cn2)C(=O)N(C2CC4(C2)CN(S(=O)(=O)c2ccccc2F)C4)[C@H](C)CO3)CC1` [Example 154] belongs 2 nM; to `C[C@@H]1COc2cc(N3CCC(F)CC3)ncc2C(=O)N1C1CC2(C1)CN(S(=O)(=O)c1ccccc1F)C2` [Example 155], 1 nM.

These data come from patent US20260132127A1, “NOVEL SPIRO COMPOUND” (MITSUBISHI TANABE PHARMA CORPORATION, priority 2021, published 2026).
